In brackets after ≈: the same amount, converted by molar mass.
What was measured:
Assay type in all cases: cell-based
S. aureus (ATCC 25923) = test: MIC by broth microdilution; conditions: Staphylococcus aureus, ATCC25923
Method: (§1) Bacteria of the genus Staphylococcus were selected for MIC investigation due to its clinical importance. Compounds showing activity against S. aureus (ATCC 25923) were tested against 10 multidrug-resistant strains of Staphylococcus species, including: clinical isolates methicillin-resistant Staphylococcus aureus (MRSA) strains MRSA-1, MRSA-2, and MRSA-3, and environmental isolates S. saprophyticus (strains UDH-1, UDH-2, UDH-3 and UDH-4), S. haemolyticus (strains UDH-6 and UDH-7), and S. epidermidis strain UDH-5.
(§2) A broth microdilution method was used to measure MIC according to the Clinical and Laboratory Standards Institute guidelines. Two-fold serial dilutions of the test compound (8 concentrations ranged between 100-0.78 μg/mL) were tested. Two reference antibiotics were used as quality controls (ciprofloxacin and amikacin). In each experiment, solvent (DMSO) was used as a negative control, un-treated control (composing of bacteria in Mueller-Hinton broth) was used as a growth control, blank (culture media alone) was used as sterility control. The 96-well microplate with the test compounds was incubated for 20 hours at 37° C. Turbidity in wells indicated bacterial growth. […] For the definite determination of MIC, CellTiter-Blue® Cell Viability Assay (Promega, USA) was used (as above). The MIC was defined as the lowest compound concentration that prevented the color change of the Cell Viability solution (absence of bacterial growth; thus, suspension remained blue in color). For the definite determination of MIC, CellTiter-Blue® Cell Viability Assay (Promega, USA) was used (as above). To each well of the 96-well microplate, 20 μL of the Cell Viability Assay solution was added to the overnight (20 hours culture) and incubated at 37° C. for 4 hours. After the end of the incubation, pink and blue colors were used to differentiate viable from dead bacterial suspensions, respectively. The MIC was defined as the lowest compound concentration that prevented the color change.

[1] = tested on: MRSA-1 (clinical isolate, methicillin-resistant Staphylococcus aureus); test: MIC by broth microdilution; conditions: Staphylococcus aureus, MRSA; clinical isolate
Method: (§3) Bacteria of the genus Staphylococcus were selected for MIC investigation due to its clinical importance.
as §2, with “Two reference antibiotics were used as quality controls (ciprofloxacin and amikacin).” left out

[2] = tested on: MRSA-2 (clinical isolate, methicillin-resistant Staphylococcus aureus); test: MIC by broth microdilution
Method: as §3
as §2, with “Two reference antibiotics were used as quality controls (ciprofloxacin and amikacin).” left out

[3] = tested on: MRSA-3 (clinical isolate, methicillin-resistant Staphylococcus aureus); test: MIC by broth microdilution
Method: as §3
as §2, with “Two reference antibiotics were used as quality controls (ciprofloxacin and amikacin).” left out

[4] = tested on: UDH-1 (environmental isolate, S. saprophyticus); test: MIC by broth microdilution; conditions: for MIC: Staphylococcus saprophyticus, environmental isolate; for times lower than MIC of ciprofloxacin: UDH-1
Method: as §1
(§4) All these strains were resistant to at least three antibiotics from different classes, as confirmed by a disk diffusion assay.
as §2

[5] = tested on: UDH-2 (environmental isolate, S. saprophyticus); test: MIC by broth microdilution; conditions: Staphylococcus saprophyticus
Method: as §1, §4, §2

[6] = tested on: UDH-3 (environmental isolate, S. saprophyticus); test: MIC by broth microdilution; conditions: for MIC: Staphylococcus saprophyticus, environmental isolate
Method: as §1, §4, §2

[7] = tested on: UDH-4 (environmental isolate, S. saprophyticus); test: MIC by broth microdilution; conditions: Staphylococcus saprophyticus
Method: as §1, §4, §2

[8] = tested on: UDH-5 (environmental isolate, S. epidermidis); test: MIC by broth microdilution; conditions: Staphylococcus epidermidis
Method: as §1, §4, §2

[9] = tested on: UDH-6 (environmental isolate, S. haemolyticus); test: MIC by broth microdilution; conditions: Staphylococcus haemolyticus; environmental isolate
Method: as §1, §4, §2

[10] = tested on: UDH-7 (environmental isolate, S. haemolyticus); test: MIC by broth microdilution; conditions: Staphylococcus haemolyticus; environmental isolate
Method: as §1, §4, §2

[11] = tested on: Staphylococcus aureus (ATCC 25923); test: Cell viability assay (resazurin) screening for antibacterial activity; design: key: Positive: A positive result indicates antibacterial activity expressed as growth inhibition; Negative: a negative result indicates no antibacterial activity expressed as bacterial growth at the tested concentration; conditions: single high concentration of 1 mg/mL
[12] = tested on: Enterococcus faecalis (ATCC 29212); test: as above; design: key: Positive: A positive result indicates antibacterial activity expressed as growth inhibition; Negative: a negative result indicates no antibacterial activity expressed as bacterial growth at the tested concentration; conditions: single high concentration of 1 mg/mL
[13] = tested on: Bacillus subtilis (environmental isolate); test: as above; design: key: Positive: A positive result indicates antibacterial activity expressed as growth inhibition; Negative: a negative result indicates no antibacterial activity expressed as bacterial growth at the tested concentration; conditions: single high concentration of 1 mg/mL
[14] = tested on: Escherichia coli (ATCC 25922); test: as above; design: key: Positive: A positive result indicates antibacterial activity expressed as growth inhibition; Negative: a negative result indicates no antibacterial activity expressed as bacterial growth at the tested concentration; conditions: single high concentration of 1 mg/mL
[15] = tested on: Pseudomonas aeruginosa (ATCC 27853); test: as above; design: key: Positive: A positive result indicates antibacterial activity expressed as growth inhibition; Negative: a negative result indicates no antibacterial activity expressed as bacterial growth at the tested concentration; conditions: single high concentration of 1 mg/mL

Row | MIC (S. aureus (ATCC 25923)) | MIC [1] | MIC [2] | MIC [3] | MIC [4] | MIC [5] | MIC [6] | MIC [7] | MIC [8] | times lower than MIC of ciprofloxacin [4] | times lower than MIC of ciprofloxacin ([6]; UDH-3) | SMILES | MIC [9] | MIC [10] | antibacterial activity, Staphylococcus aureus [11] | antibacterial activity, Enterococcus faecalis [12] | antibacterial activity, Bacillus subtilis [13] | antibacterial activity, Escherichia coli [14] | antibacterial activity, Pseudomonas aeruginosa [15]
1 | 6.25 µg/mL | 6.25 µg/mL | 6.25 µg/mL | 6.25 µg/mL | 12.5 µg/mL | 25 µg/mL | 12.5 µg/mL | 6.25 µg/mL | 3.12 µg/mL |  |  | COC(=O)CC1COc2c(cc3c4c2CCCN4CCC3)-c2c(NC(C)(C)C)n3c(-c4ccc(F)c(F)c4)csc3[n+]21 (centres unmarked) [Compound 1s] | 25 µg/mL | 25 µg/mL | Positive | Positive | Positive | Negative | Negative
2 | 3.12 µg/mL | 6.25 µg/mL | 3.12 µg/mL | 3.12 µg/mL | 6.25 µg/mL | 6.25 µg/mL | 6.25 µg/mL | 6.25 µg/mL | 3.12 µg/mL | approximately 10 times |  | COC(=O)CC1COc2c(cc3c4c2CCCN4CCC3)-c2c(NC(C)(C)C)n3c(-c4cc(OC)ccc4OC)csc3[n+]21 (centres unmarked) [Compound 1t] | 12.5 µg/mL | 12.5 µg/mL | Positive | Positive | Positive | Negative | Negative
3 | 3.12 µg/mL | 6.25 µg/mL | 6.25 µg/mL | 6.25 µg/mL | 6.25 µg/mL | 6.25 µg/mL | 6.25 µg/mL | 3.12 µg/mL | 1.56 µg/mL | approximately 10 times |  | COC(=O)CC1COc2c(cc3c4c2CCCN4CCC3)-c2c(NC(C)(C)C)n3c(-c4ccc(Cl)cc4Cl)c(C)sc3[n+]21 (centres unmarked) [Compound 1x] | 6.25 µg/mL | 12.5 µg/mL | Positive | Positive | Positive |  | Negative

The remaining lines, values behind:

Row | SMILES | MIC (S. aureus (ATCC 25923)) | MIC [1] | MIC [2] | MIC [3] | MIC [4] | MIC [5] | MIC [6] | MIC [7] | MIC [8] | times lower than MIC of ciprofloxacin [4] | times lower than MIC of ciprofloxacin ([6]; UDH-3) | MIC [9] | MIC [10] | antibacterial activity, Staphylococcus aureus [11] | antibacterial activity, Enterococcus faecalis [12] | antibacterial activity, Bacillus subtilis [13] | antibacterial activity, Escherichia coli [14] | antibacterial activity, Pseudomonas aeruginosa [15]
4 | NCC[C@H](O)C(=O)N[C@@H]1C[C@H](N)[C@@H](O[C@H]2O[C@H](CN)[C@@H](O)[C@H](O)[C@H]2O)[C@H](O)[C@H]1O[C@H]1O[C@H](CO)[C@@H](O)[C@H](N)[C@H]1O [Amikacin, amikacin, reference compound] | 4 µg/mL (≈ 6.83 µM) | 16 µg/mL (≈ 27.3 µM) | 8 µg/mL (≈ 13.7 µM) | 2 µg/mL (≈ 3.42 µM) | 8 µg/mL (≈ 13.7 µM) | 0.25 µg/mL (≈ 0.427 µM) | 0.5 µg/mL (≈ 0.854 µM) | < 0.25 µg/mL | < 0.25 µg/mL |  |  | 4 µg/mL (≈ 6.83 µM) | 4 µg/mL (≈ 6.83 µM) |  |  |  |  | 
5 | CCN(CC)c1ccc2c(c1)OCC(CC(=O)OC)[n+]1c-2c(NC(C)(C)C)n2c(-c3ccc(OC)cc3)c(-c3ccc(OC)cc3)sc21 (centres unmarked) [Compound 1h] | 6.25 µg/mL | 6.25 µg/mL | 6.25 µg/mL | 3.12 µg/mL | 6.25 µg/mL | 6.25 µg/mL | 3.12 µg/mL | 6.25 µg/mL | 1.56 µg/mL | approximately 10 times | approximately 20 times | 6.25 µg/mL | 12.5 µg/mL | Positive | Positive | Positive | Negative | Negative
6 | COC(=O)CC1COc2c(cc3c4c2CCCN4CCC3)-c2c(NC(C)(C)C)n3c(-c4ccc(F)cc4)c(C)sc3[n+]21 (centres unmarked) [Compound 1n] | 6.25 µg/mL | 12.5 µg/mL | 12.5 µg/mL | 12.5 µg/mL | 12.5 µg/mL | 12.5 µg/mL | 12.5 µg/mL | 12.5 µg/mL | 6.25 µg/mL |  |  | 25 µg/mL | 25 µg/mL | Positive | Positive | Positive | Negative | Negative
7 | COC(=O)CC1COc2c(cc3c4c2CCCN4CCC3)-c2c(NC(C)(C)C)n3c(-c4cccc5c4OCCO5)csc3[n+]21 (centres unmarked) [Compound 1p] | 3.12 µg/mL | 6.25 µg/mL | 6.25 µg/mL | 6.25 µg/mL | 12.5 µg/mL | 25 µg/mL | 6.25 µg/mL | 6.25 µg/mL | 1.56 µg/mL |  |  | 12.5 µg/mL | 12.5 µg/mL | Positive | Positive | Positive | Negative | Negative
8 | COC(=O)CC1COc2c(cc3c4c2CCCN4CCC3)-c2c(NC(C)(C)C)n3c(-c4ccc(Br)cc4)csc3[n+]21 (centres unmarked) [Compound 1q] | 3.12 µg/mL | 6.25 µg/mL | 6.25 µg/mL | 6.25 µg/mL | 6.25 µg/mL | 6.25 µg/mL | 12.5 µg/mL | 3.12 µg/mL | 3.12 µg/mL | approximately 10 times |  | 12.5 µg/mL | 12.5 µg/mL | Positive | Positive | Positive | Negative | Negative
9 | CCOC(=O)c1sc2n(c(NC(C)(C)C)c3[n+]2C(CC(=O)OC)COc2c-3cc3c4c2CCCN4CCC3)c1-c1ccccc1 (centres unmarked) [Compound 1r] | 12.5 µg/mL | 12.5 µg/mL | 12.5 µg/mL | 12.5 µg/mL | 12.5 µg/mL | 25 µg/mL | 12.5 µg/mL | 25 µg/mL | 6.25 µg/mL |  |  | 50 µg/mL | 50 µg/mL | Positive | Positive | Positive | Negative | Negative

— US10526343B2, “Heterocyclic systems and pharmaceutical applications thereof” (University of Sharjah, priority 2018, dated 2020)
